According to US8183364B2, “Substituted porphyrins” (Duke University, priority 2004, dated 2012):

Assay: Kinetic salt effect on O2.^− dismutation by cytochrome c assay
Format: biochemical
Conditions: 0.05 M phosphate buffer, pH 7.8, 0-0.4 M NaCl
Method: Kinetic salt effect. The dependence of the catalytic rate constant for the O2.^− dismutation upon ionic strength was determined by cytochrome c assay (McCord and Fridovich, J. Biol. Chem. 244:6049 (1969)) in 0.05 M phosphate buffer, pH 7.8 with NaCl ranging from 0 to 0.4 M. In doing this, the effect of ionic strength on the rate of the O2.^−/cytochrome c reaction was corrected for.
Kinetic salt effect. The effect of the ionic strength (μ) on the catalytic rate constant was assessed using eq which is based on Debye-Huckel relation (Hambright et al, J. Porphyrins Phthalocyanines 7:139-146 (2003)) for the effect of the ionic strength of the solution on the activity coefficient of an ion. log k=log kref+2AzAzBμ^1/2/(1+μ^1/2) The k is the rate constant at any given ionic strength, while kref is the rate constant at μ=0. The A is a collection of physical constants with a value of 0.509 and zA and zB are the charges of the reacting species. The equation predicts a linear plot of log k vs μ^1/2/(1+μ^1/2). Eq assumes a coefficient of 1.0 (βai) for μ^1/2 in the denominator, i.e., the distance of the closest approach, ai to be 3 A and β is a physical constant, […]. It is doubtful whether great significance can be attributed to the ai, thus to the product zAzB (Hambright et al, J. Porphyrins Phthalocyanines 7:139-146 (2003)), especially so in the light of the bulkiness, high charge and solvation shell of the metalloporphyrins. Accounting for the mono- and diprotonated phosphates as the major species at pH 7.8 (pKa=7.2), and the concentration of the NaCl, the ionic strength was calculated using equation μ=½ Σ mizi^2 where mi is the molality and zi the charge of the given ion.
The slopes of the plots are −6.48 (MnTE-2-PyP^5+), −7.02 (MnTMOE-2-PyP^5+), −7.38 (MnTDMOE-2-ImP^5+), and −4.15 (MnTnBu-2-PyP^5+). As expected (Hambright et al, J. Porphyrins Phthalocyanines 7:139-146 (2003)), when the reactants are ions of opposite charges, the higher the ionic strength of the solution the lower the rate constants, i.e. the slopes are negative. The slopes of the plots indicate clearly the impact of the local dielectric constant on the kcat. The kcat of the most lipophilic compound, MnTnBu-2-PyP^5+ is 40% less sensitive to the changes in ionic strength of the solution than is the kcat of its methoxyethyl analogue, MnTMOE-2-PyP^5+.

SMILES | slope of log kcat vs μ^1/2/(1+μ^1/2)
COCCn1cc[n+](CCOC)c1-c1c2nc(c(-c3n(CCOC)cc[n+]3CCOC)c3ccc([n-]3)c(-c3n(CCOC)cc[n+]3CCOC)c3nc(c(-c4n(CCOC)cc[n+]4CCOC)c4ccc1[n-]4)C=C3)C=C2.[Mn+3] [MnTDMOE-2-ImP^5+, Mn(III) tetrakis 5,10,15,20-tetrakis[N,N′-di(2-methoxyethyl)imidazolium-2-yl]porphyrin] | −7.38
COCC[n+]1ccccc1-c1c2nc(c(-c3cccc[n+]3CCOC)c3ccc([n-]3)c(-c3cccc[n+]3CCOC)c3nc(c(-c4cccc[n+]4CCOC)c4ccc1[n-]4)C=C3)C=C2.[Mn+3] [MnTMOE-2-PyP^5+, Mn(III) tetrakis 5,10,15,20-tetrakis[N-(2-methoxyethyl)pyridinium-2-yl]porphyrin] | −7.02
